The numbers were not newly measured in patent US8613858B2, “Separation process” (Dupont Nutrition Biosciences APS, priority 2005, dated 2013), which cites them from elsewhere.

The conditions of series [1]: characteristic properties of model compounds.
For series [2] the following is noted: characteristic properties of model compounds. The source holds these as a separate data set.

For `C[N+](C)(C)CC(=O)O` [Betaine], the Water solubility in series [1] is 611 mg/mL. The LogPOW in series [2] is recorded as −2.93.
Turning to `O=C(O)CC(O)(CC(=O)O)C(=O)O` [Citric acid], the LogPOW in series [2] is given as −1.67.
With `OCC(O)CO` [Glycerol], in series [2], the LogPOW is −1.76.
